Test system: human chondrocytes

[Cl-].[Cl-].[Sr+2] [SrCl2, strontium chloride]
production of sulfated glycoseaminoglycans (24 hours, concentration printed "210^-3 M", control 43 871 ± 1124, p < 0.05): 52 839 c.p.m./10^6 cells
effect on the synthesis of proteoglycans / stimulation of the chondroformation (in words) (human chondrocytes, same effects as compound A): exhibits the same effects

Reference: US5856356A, “Use of strontium salts and pharmaceutical compositions thereof for the treatment of arthrosis” (Adir et Compagnie, priority 1996, dated 1999)
